# Measured values: US12653191B2, “Active compound combinations” (Bayer Aktiengesellschaft, priority 2020, dated 2026)
# Where two headings read alike, the source gives them in different places.
# Experiments:
# Alternaria alternate = assay: in vitro-Test with fungal microorganisms, Method A (tables A1-A12); assay type: cell-based, Alternaria alternata; conditions: Alternaria, applied alone, read-out: Efficacy %
# Method in brief: (§1)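 Growth inhibition was measured photometrically at 620 nm 3–5 days after application, with 100% efficacy meaning no growth and 0% meaning growth equal to the untreated control. Fungal spore or mycelium suspension in potato dextrose broth was added onto solvent-evaporated compound and incubated at 20° C and 85% relative humidity.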
# Alternaria alternata = assay: in vitro-Test with fungal microorganisms, Method B (tables A13-A22); assay type: cell-based; conditions: Alternaria alternata, read-out: Efficacy
# Method in brief: (§2)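 Steps: solvent evaporation leaves the compound coating the wells; fungus-inoculated liquid growth medium goes on top; absorbance at 600 nm is measured; incubation runs 3 to 7 days at 20° C. with 85% relative humidity. Inhibition is then read photometrically and expressed as efficacy against untreated control.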
# Botrytis cinerea [1] = assay: in vitro-Test with fungal microorganisms, Method A (tables B1-B14); assay type: cell-based; conditions: Botrytis cinerea
# Method in brief: as §1
# Botrytis cinerea [2] = assay: in vitro-Test with fungal microorganisms, Method B (tables B15-B18); assay type: cell-based; conditions: Botrytis cinerea, read-out: Efficacy %
# Method in brief: as §2
# Cercospora beticola [3] = assay: in vitro-Test with fungal microorganisms, Method A (tables C1-C10); assay type: cell-based
# Method in brief: as §1
# [4] = test system: Colletotrichum lindemuthianum; assay: in vitro-Test with fungal microorganisms, Method A (tables D1-D8); assay type: cell-based; conditions: Colletotrichum lindemuthianum, read-out: Efficacy %
# Method in brief: as §1
# Cordana musae [5] = assay: in vitro-Test with fungal microorganisms, Method A (tables E1-E8); assay type: cell-based; conditions: Neocordana musae, read-out: Efficacy %
# Method in brief: as §1
# Cordana musae [6] = assay: in vitro-Test with fungal microorganisms, Method B (tables E9-E16); assay type: cell-based; conditions: Neocordana musae, single active, read-out: Efficacy
# Method in brief: as §2
# Diaporthe citri [7] = assay: in vitro-Test with fungal microorganisms, Method A (tables F1-F11); assay type: cell-based
# Method in brief: as §1
# Fusarium culmorum [8] = assay: in vitro-Test with fungal microorganisms, Method B (tables G5-G15); assay type: cell-based; conditions: Fusarium culmorum, read-out: Efficacy
# Method in brief: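 Efficacy, relative to untreated control (0% = growth as in control, 100% = no growth), from photometric growth measurement at 600 nm after 3 to 7 days at 20° C., 85% relative humidity. Compound applied in methanol+emulsifier, solvent evaporated, then spore/mycelium-amended liquid medium added.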
# Parastagonospora nodorum [9] = assay: in vitro-Test with fungal microorganisms, Method A (tables H1-H4); assay type: cell-based
# Method: Example: In Vitro-Test with Fungal Microorganisms
# Wells of 96-well microtiter plates are filled with 10 μl of a preparation of test compound or compound combination in methanol+emulsifier alkylaryl-polyglycol-ether. Thereafter, the solvent is evaporated in a hood. At the next step, 100 μl of liquid potato dextrose medium is given into each well, that has been amended with an appropriate concentration of spores or mycelium suspension of the test fungus.
# With the aid of a photometer, the extinction in all wells is measured at the wavelength of 620 nm.
# The microtiter plates are incubated at 20° C. and 85% relative humidity. The inhibition of growth is determined again photometrically 3-5 days after the application. Efficacy is calculated in relation to the untreated control, 0% efficacy means fungal growth as high as in untreated control while 100% efficacy means no fungal growth is measured.
# The data in tables A1 to A12, B1 to B14, C1 to C10, D1 to D8, E1 to E8, F1 to F11, G1 to G4, H1 to H4 and I1 to I5 were collected according to Method A. The data in tables A13 to A22, B15 to B18, C11 to C20, E9 to E16, F12 to F15, G5 to G15, H5 to H8, I6 to I11 and J1 to J11 were collected according to Method B.
# [10] = test system: Ustilago segetum var. avenae; assay: in vitro-Test with fungal microorganisms, Method B (tables I6-I11); assay type: cell-based; conditions: read-out: Efficacy %
# Method in brief: as §2
# Colletotrichum coccodes = assay: in vitro-Test with fungal microorganisms, Method B (tables J1-J11); assay type: cell-based; conditions: Colletotrichum coccodes, read-out: Efficacy %
# Method in brief: as §2
# Cercospora beticola [11] = assay: in vitro-Test with fungal microorganisms, Method B (tables C11-C20); assay type: cell-based; conditions: Cercospora beticola, single compound, read-out: Efficacy %
# Method in brief: as §2
# Diaporthe citri [12] = assay: in vitro-Test with fungal microorganisms, Method B (tables F12-F15); assay type: cell-based
# Method in brief: as §2
# Fusarium culmorum [13] = assay: in vitro-Test with fungal microorganisms, Method A (tables G1-G4); assay type: cell-based; conditions: alone
# Method in brief: as §1
# Parastagonospora nodorum [14] = assay: in vitro-Test with fungal microorganisms, Method B (tables H5-H8); assay type: cell-based; conditions: Parastagonospora nodorum, read-out: Efficacy
# Method in brief: as §2
# [15] = Diaporthe citri, applied alone, read-out: Efficacy
# [16] = Diaporthe citri, single active, read-out: Efficacy
smiles,measurement,setting,value
"Cc1cc(C)nc(Nc2ccccc2)n1 [(7.005) pyrimethanil, pyrimethanil]",inhibition of growth at 4 ppm,Alternaria alternate; 4 ppm,93%
same,inhibition of growth at 20 ppm,Alternaria alternate; 20 ppm,82%
same,inhibition of growth at 0.8 ppm,Alternaria alternata,96%
same,inhibition of growth at 0.8 ppm,Alternaria alternata; single compound,96%
same,inhibition of growth at 20 ppm,"Alternaria alternata; single compound, 20 ppm",100%
same,inhibition of growth at 4 ppm,Botrytis cinerea [1]; read-out: Efficacy,100%
same,inhibition of growth at 20 ppm,Botrytis cinerea [1]; read-out: Efficacy,100%
same,inhibition of growth at 0.8 ppm,"Botrytis cinerea [1]; alone, 0.8 ppm, read-out: Efficacy %",100%
same,inhibition of growth at 4 ppm,"Botrytis cinerea [1]; alone, read-out: Efficacy %",100%
same,inhibition of growth at 20 ppm,"Botrytis cinerea [1]; alone, read-out: Efficacy %",100%
same,inhibition of growth at 0.8 ppm,Botrytis cinerea [2]; 0.8 ppm alone,89%
same,inhibition of growth at 4 ppm,Botrytis cinerea [2]; 4 ppm alone,95%
same,Efficacy %,Cercospora beticola [3]; 20.0 ppm,100%
same,inhibition of growth at 0.8 ppm,"Cercospora beticola [3]; Cercospora beticola, 0.8 ppm alone, read-out: Efficacy %",10%
same,inhibition of growth at 0.8 ppm,"Cercospora beticola [3]; Cercospora beticola, 0.8 ppm, read-out: Efficacy %",20%
same,inhibition of growth at 4 ppm,"Cercospora beticola [3]; Cercospora beticola, 4.0 ppm alone, read-out: Efficacy %",98%
same,inhibition of growth at 4 ppm,"Cercospora beticola [3]; Cercospora beticola, 4.0 ppm, read-out: Efficacy %",100%
same,inhibition of growth at 0.8 ppm,[4]; single active at 0.8 ppm,1%
same,inhibition of growth at 4 ppm,[4]; single active at 4.0 ppm,0%
same,inhibition of growth at 20 ppm,[4]; single active at 20.0 ppm,16%
same,inhibition of growth at 4 ppm,Cordana musae [5]; mixing partner alone,24%
same,inhibition of growth at 20 ppm,Cordana musae [5]; mixing partner alone,4%
same,inhibition of growth at 4 ppm,Cordana musae [5]; single substance,0%
same,inhibition of growth at 20 ppm,Cordana musae [5]; single substance,24%
same,inhibition of growth at 0.8 ppm,Cordana musae [6]; 0.8 ppm,40%
same,inhibition of growth at 4 ppm,Diaporthe citri [7]; [15],97%
same,inhibition of growth at 20 ppm,Diaporthe citri [7]; [15],100%
same,inhibition of growth at 0.8 ppm,"Diaporthe citri [7]; Diaporthe citri, single active, 0.8 ppm, read-out: Efficacy",0%
same,inhibition of growth at 4 ppm,Diaporthe citri [7]; [16],97%
same,inhibition of growth at 20 ppm,Diaporthe citri [7]; [16],100%
same,inhibition of growth at 0.8 ppm,Fusarium culmorum [8]; alone,5%
same,inhibition of growth at 0.8 ppm,Fusarium culmorum [8]; single active compound,8%
same,inhibition of growth at 4 ppm,"Fusarium culmorum [8]; single active compound, 4 ppm",16%
same,inhibition of growth at 20 ppm,"Fusarium culmorum [8]; single active compound, 20 ppm",24%
same,Efficacy,Parastagonospora nodorum [9]; 0.8 ppm,100%
same,Efficacy,Parastagonospora nodorum [9]; 20.0 ppm,100%
same,inhibition of growth at 0.8 ppm,[10]; 0.8 ppm,18%
same,inhibition of growth at 4 ppm,[10]; 4 ppm,42%
same,inhibition of growth at 20 ppm,[10]; 20 ppm,49%
same,inhibition of growth at 0.8 ppm,Colletotrichum coccodes; single active compound at 0.8 ppm,25%
"Fc1ccc(Oc2ccnc3cc(Cl)cc(Cl)c23)cc1 [(13.005) quinoxyfen, quinoxyfen]",inhibition of growth at 10 ppm,"Alternaria alternata; single compound, 10 ppm",30%
same,inhibition of growth at 0.4 ppm,"Botrytis cinerea [1]; alone, 0.4 ppm, read-out: Efficacy %",0%
same,inhibition of growth at 0.08 ppm,Botrytis cinerea [2]; 0.08 ppm alone,0%
same,inhibition of growth at 0.4 ppm,Botrytis cinerea [2]; 0.4 ppm alone,0%
same,inhibition of growth at 0.08 ppm,"Cercospora beticola [3]; Cercospora beticola, 0.08 ppm alone, read-out: Efficacy %",10%
same,inhibition of growth at 0.4 ppm,"Cercospora beticola [3]; Cercospora beticola, 0.4 ppm alone, read-out: Efficacy %",0%
same,inhibition of growth at 2 ppm,"Cercospora beticola [3]; Cercospora beticola, 2.0 ppm alone, read-out: Efficacy %",4%
same,inhibition of growth at 10 ppm,"Cercospora beticola [3]; Cercospora beticola, 10.0 ppm alone, read-out: Efficacy %",34%
same,inhibition of growth at 0.4 ppm,Cercospora beticola [11]; 0.4 ppm,0%
same,inhibition of growth at 2 ppm,Cercospora beticola [11]; 2 ppm,0%
same,inhibition of growth at 10 ppm,Cercospora beticola [11]; 10 ppm,4%
same,inhibition of growth at 0.08 ppm,"[4]; mixing partner alone, 0.08 ppm",0%
same,inhibition of growth at 0.4 ppm,"[4]; mixing partner alone, 0.4 ppm",0%
same,inhibition of growth at 2 ppm,"[4]; mixing partner alone, 2.0 ppm",0%
same,inhibition of growth at 0.08 ppm,[4]; single active at 0.08 ppm,1%
same,inhibition of growth at 0.4 ppm,[4]; single active at 0.4 ppm,0%
same,inhibition of growth at 2 ppm,[4]; single active at 2.0 ppm,0%
same,inhibition of growth at 10 ppm,[4]; single active at 10.0 ppm,24%
same,inhibition of growth at 0.4 ppm,Cordana musae [5]; mixing partner alone,0%
same,inhibition of growth at 2 ppm,Cordana musae [5]; mixing partner alone,0%
same,inhibition of growth at 10 ppm,Cordana musae [5]; mixing partner alone,0%
same,inhibition of growth at 0.08 ppm,"Cordana musae [5]; single substance, 0.08 ppm",0%
same,inhibition of growth at 0.4 ppm,Cordana musae [5]; single substance,0%
same,inhibition of growth at 2 ppm,Cordana musae [5]; single substance,0%
same,inhibition of growth at 10 ppm,Cordana musae [5]; single substance,34%
same,inhibition of growth at 0.08 ppm,Cordana musae [6]; 0.08 ppm,0%
same,inhibition of growth at 0.4 ppm,Cordana musae [6]; 0.4 ppm,0%
same,inhibition of growth at 10 ppm,Cordana musae [6]; 10 ppm,2%
same,inhibition of growth at 0.08 ppm,"Diaporthe citri [7]; Diaporthe citri, Table F10, 0.08 ppm alone, read-out: Efficacy",52%
same,inhibition of growth at 0.4 ppm,"Diaporthe citri [7]; Diaporthe citri, Table F10, 0.4 ppm alone, read-out: Efficacy",6%
same,inhibition of growth at 2 ppm,"Diaporthe citri [7]; Diaporthe citri, Table F10, 2.0 ppm alone, read-out: Efficacy",10%
same,inhibition of growth at 10 ppm,"Diaporthe citri [7]; Diaporthe citri, Table F10, 10.0 ppm alone, read-out: Efficacy",20%
same,inhibition of growth at 0.4 ppm,"Diaporthe citri [7]; Diaporthe citri, applied alone, 0.4 ppm, read-out: Efficacy",15%
same,inhibition of growth at 10 ppm,"Diaporthe citri [7]; Diaporthe citri, applied alone, 10.0 ppm, read-out: Efficacy",41%
same,Efficacy,"Diaporthe citri [7]; applied alone, 2.0 ppm",0%
same,Efficacy,"Diaporthe citri [12]; Table F13, 0.08 ppm alone",0%
same,Efficacy,"Diaporthe citri [12]; Table F13, 2 ppm alone",24%
same,Efficacy,"Diaporthe citri [12]; Table F15, 0.4 ppm alone",0%
same,Efficacy,"Diaporthe citri [12]; Table F15, 2 ppm alone",13%
same,Efficacy,"Diaporthe citri [12]; Table F15, 10 ppm alone",76%
same,Efficacy,Fusarium culmorum [13]; 10.0 ppm,0%
same,inhibition of growth at 0.08 ppm,"Fusarium culmorum [13]; Fusarium culmorum, 0.08 ppm, read-out: Efficacy",0%
same,inhibition of growth at 10 ppm,"Fusarium culmorum [13]; Fusarium culmorum, 10.0 ppm, read-out: Efficacy",0%
same,inhibition of growth at 0.08 ppm,"Fusarium culmorum [8]; single active compound, 0.08 ppm",0%
same,inhibition of growth at 0.4 ppm,"Fusarium culmorum [8]; single active compound, 0.4 ppm",2%
same,inhibition of growth at 10 ppm,"Fusarium culmorum [8]; single active compound, 10 ppm",8%
same,inhibition of growth at 0.08 ppm,Parastagonospora nodorum [14]; 0.08 ppm,5%
same,inhibition of growth at 0.4 ppm,Parastagonospora nodorum [14]; 0.4 ppm,4%
same,inhibition of growth at 2 ppm,Parastagonospora nodorum [14]; 2 ppm,1%
same,inhibition of growth at 10 ppm,Parastagonospora nodorum [14]; 10 ppm,33%
same,inhibition of growth at 0.08 ppm,[10]; 0.08 ppm,0%
same,inhibition of growth at 2 ppm,[10]; 2 ppm,0%
same,inhibition of growth at 10 ppm,[10]; 10 ppm,9%
same,inhibition of growth at 0.08 ppm,Colletotrichum coccodes; 0.08 ppm,0%
same,inhibition of growth at 0.4 ppm,Colletotrichum coccodes; 0.4 ppm,0%
same,inhibition of growth at 2 ppm,Colletotrichum coccodes; 2 ppm,48%
same,inhibition of growth at 0.08 ppm,Colletotrichum coccodes; single active compound at 0.08 ppm,0%
same,inhibition of growth at 0.4 ppm,Colletotrichum coccodes; single active compound at 0.4 ppm,0%
same,inhibition of growth at 2 ppm,Colletotrichum coccodes; single active compound at 2 ppm,18%
same,inhibition of growth at 10 ppm,Colletotrichum coccodes; single active compound at 10 ppm,28%
